Reference: paper PMC6934184, “Selective DNA-PKcs inhibition extends the therapeutic index of localized radiotherapy and chemotherapy” (The Journal of Clinical Investigation, 2019)

Target: T1, NEK2 (Homo sapiens, UniProt P51955)
T1 construct: purchased Thermo Fisher Scientific (Life Technologies) SelectScreen
Assay: SelectScreen Z'LYTE
Type: biochemical
Procedure, shortened: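 Percent values come from Thermo SelectScreen profiling of NU5455, combining activity and binding assays. CSF1R was run in Z'LYTE format at Km app ATP, and CAMK1 in Adapta format with ATP listed at 10.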

T1 sequence (P51955 whole entry): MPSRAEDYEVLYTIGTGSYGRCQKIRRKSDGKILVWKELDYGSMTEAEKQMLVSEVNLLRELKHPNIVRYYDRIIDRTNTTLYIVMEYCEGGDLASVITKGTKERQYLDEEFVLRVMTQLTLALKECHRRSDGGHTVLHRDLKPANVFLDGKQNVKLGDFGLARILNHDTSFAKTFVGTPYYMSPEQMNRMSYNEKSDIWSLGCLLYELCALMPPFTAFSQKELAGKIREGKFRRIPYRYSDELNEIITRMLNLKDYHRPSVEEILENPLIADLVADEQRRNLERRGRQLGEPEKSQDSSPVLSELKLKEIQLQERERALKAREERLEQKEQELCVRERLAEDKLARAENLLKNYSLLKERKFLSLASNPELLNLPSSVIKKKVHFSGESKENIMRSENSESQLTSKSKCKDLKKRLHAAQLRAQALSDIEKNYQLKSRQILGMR

Q: Which inhibition at 1 µM does the source give for `CN(C(=O)CN1CCOCC1)c1ccc2sc3c(-c4cccc5c(=O)cc(N6CC7CCC(C6)O7)oc45)cccc3c2c1` [NU5455] here?
A: The inhibition at 1 µM was 17.8%.
